Experimental data taken from the supplement of paper PMC10307832.

Legend:
Experiment in all cases: relative viability (nuclei count vs DMSO), 5 days (fraction); higher = more cells survive
EHT 1864 + Foretinib = compound: C1COCCN1CC2=CC(=O)C(=CO2)OCCCCCSC3=C4C=CC(=CC4=NC=C3)C(F)(F)F [EHT 1864] + COc1cc2c(Oc3ccc(NC(=O)C4(C(=O)Nc5ccc(F)cc5)CC4)cc3F)ccnc2cc1OCCCN1CCOCC1 [Foretinib] (partner 0.25 µM)
Outline: (§1)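 Lung cancer cell lines, seeded in 1536-well plates, were treated the following day by pin tool with a single drug or with five library-drug doses (not always all listed) in √10 steps on top of a fixed anchor-drug dose. Cells were fixed and nuclei stained in one step after 5 days, and nuclei were counted. Relative viability is the nuclei count for treated wells divided by that for vehicle wells, reported as medians of duplicate plates.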

EHT 1864 + OSI-027 = compound: C1COCCN1CC2=CC(=O)C(=CO2)OCCCCCSC3=C4C=CC(=CC4=NC=C3)C(F)(F)F [EHT 1864] + COc1cccc2cc(-c3nc([C@H]4CC[C@H](C(=O)O)CC4)n4ncnc(N)c34)[nH]c12 [OSI-027] (partner 0.5 µM)
Outline: as §1

EHT 1864 + Palbociclib = compound: C1COCCN1CC2=CC(=O)C(=CO2)OCCCCCSC3=C4C=CC(=CC4=NC=C3)C(F)(F)F [EHT 1864] + CC(=O)c1c(C)c2cnc(Nc3ccc(N4CCNCC4)cn3)nc2n(C2CCCC2)c1=O [Palbociclib] (partner 0.5 µM)
Outline: as §1

EHT 1864 = compound: C1COCCN1CC2=CC(=O)C(=CO2)OCCCCCSC3=C4C=CC(=CC4=NC=C3)C(F)(F)F [EHT 1864]
Outline: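 Only plates meeting two conditions passed: control CV below 25% and at least one doubling. Lung cancer cell lines, kept overnight at 37 °C in 1536-well plates, were pinned with five library-drug doses (not always all listed) √10 apart on vehicle-anchored plates and grown 5 days without medium change. A one-step fix, permeabilisation and Hoechst stain preceded 4× imaging and MetaXpress nuclear counting. Viability equals treated-well nuclei divided by vehicle-well nuclei, as the median over plates.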

| Cell Line | relative viability (EHT 1864 + Foretinib; first compound 0.04 µM) | relative viability (EHT 1864 + Foretinib; first compound 0.1265 µM) | relative viability (EHT 1864 + Foretinib; first compound 0.4 µM) | relative viability (EHT 1864 + Foretinib; first compound 1.265 µM) | relative viability (EHT 1864 + Foretinib; first compound 4 µM) | relative viability (EHT 1864 + OSI-027; first compound 0.04 µM) | relative viability (EHT 1864 + OSI-027; first compound 0.1265 µM) | relative viability (EHT 1864 + OSI-027; first compound 0.4 µM) | relative viability (EHT 1864 + OSI-027; first compound 1.265 µM) | relative viability (EHT 1864 + OSI-027; first compound 4 µM) | relative viability (EHT 1864 + Palbociclib; first compound 0.04 µM) | relative viability (EHT 1864 + Palbociclib; first compound 0.1265 µM) | relative viability (EHT 1864 + Palbociclib; first compound 0.4 µM) | relative viability (EHT 1864 + Palbociclib; first compound 1.265 µM) | relative viability (EHT 1864 + Palbociclib; first compound 4 µM) | relative viability (EHT 1864; 0.04 µM) | relative viability (EHT 1864; 0.1265 µM) | relative viability (EHT 1864; 0.4 µM) | relative viability (EHT 1864; 1.265 µM) | relative viability (EHT 1864; 4 µM) |
| --- | --- | --- | --- | --- | --- | --- | --- | --- | --- | --- | --- | --- | --- | --- | --- | --- | --- | --- | --- | --- |
| NCI-H1666 | 0.999 | 0.917 | 0.894 | 0.948 | 0.998 | 0.887 | 0.691 | 0.8 | 0.81 | 0.833 | 0.644 | 0.611 | 0.667 | 0.583 | 0.636 | 1.05 | 0.879 | 0.957 | 0.916 | 1.08 |
| NCI-H1734 | 0.911 | – | 0.706 | 0.961 | 0.826 | 0.706 | – | 0.611 | 0.66 | 0.592 | 0.411 | 0.314 | 0.337 | 0.337 | 0.356 | 1.07 | 0.702 | 1.03 | 1.09 | 0.906 |
| NCI-H1755 | 0.914 | 0.872 | 0.876 | 0.844 | 0.803 | 0.779 | 0.619 | 0.691 | 0.619 | 0.618 | 0.46 | 0.437 | 0.42 | 0.43 | 0.42 | 0.989 | 0.955 | 0.927 | 0.979 | 0.938 |
| NCI-H1793 | 0.604 | – | 0.667 | – | 0.789 | 0.226 | – | 0.313 | – | 0.262 | 0.242 | 0.281 | 0.315 | 0.28 | 0.373 | 0.729 | 0.781 | 0.929 | 0.928 | 0.963 |
| NCI-H1915 | 1.07 | – | 1 | 1.07 | 1.08 | 0.657 | – | 0.641 | 0.599 | 0.545 | 0.554 | – | 0.53 | 0.503 | 0.516 | 0.964 | – | 1.01 | 0.98 | 0.92 |
| NCI-H1944 | 0.893 | – | 0.882 | 0.89 | 0.701 | 0.44 | – | 0.443 | 0.417 | 0.399 | 0.327 | – | 0.353 | 0.311 | 0.332 | 1.09 | – | 1 | 1.01 | 0.879 |
| NCI-H1975 | 0.933 | 0.98 | 0.883 | – | 0.876 | 0.709 | 0.668 | 0.667 | – | 0.591 | 0.641 | 0.647 | 0.4 | 0.348 | 0.552 | 0.886 | 0.954 | 0.887 | 0.841 | 0.895 |
| NCI-H1993 | 0.741 | – | 0.748 | 0.75 | 0.744 | 0.548 | – | 0.541 | 0.554 | 0.553 | 0.693 | – | 0.682 | 0.664 | 0.741 | 0.965 | – | 0.957 | 1.03 | 0.873 |
| NCI-H2009 | 1.17 | 1.12 | 1.22 | 1.2 | 1.07 | 0.594 | 0.521 | 0.677 | 0.62 | 0.511 | 0.228 | 0.209 | 0.193 | 0.24 | 0.173 | 0.971 | 0.945 | 1.03 | 0.906 | 0.877 |
